Laboratory results published in US20250381198A1 (Melt Pharmaceuticals, Inc., priority 2024, published 2025).
Marks after values point to notes of the source that are not given here.

Test system: subjects undergoing cataract extraction with lens replacement (CELR)
Assay: Phase 3: adverse events (safety analysis set)
Type: in vivo, human
Protocol: The safety of MELT-300 was performed at baseline, in the course of surgery (intraoperatively), postoperatively on Day 1, and on Day 3+1 day post dose of study medication. Safety assessment included monitoring of AEs, vital sign measurements, and physical examinations.
An overview of adverse events (AEs) is provided in TABLE 57 for the safety analysis set. Reported data includes an overall summary of the presence of any AEs, treatment-emergent ocular adverse events (TEAEs), treatment-related TEAEs, TEAE of special interest (TEAESI), serious AEs (SEAs), and treatment-emergent SAEs (TESAE). Categories were not mutually exclusive. Results include the number of subjects, percent of subjects, and number of events in each category, respectively. A summary of treatment-emergence adverse events (TEAEs) by location, system organ class, and preferred term for the safety analysis set is provided in TABLE 58. A summary of treatment-related treatment-emergent adverse events (TRTEAEs) by system organ class, and preferred term for the safety analysis set is provided in TABLE 59. No SAEs (overall), TESAEs, or treatment-related TESAEs were observed. No SAEs resulting in death or discontinuation of the study was observed.

[1] = Location: Non-Ocular, Safety Analysis Set
[2] = Location: Non-Ocular, Safety analysis set
[3] = Location: Ocular, Safety Analysis Set
[4] = Location: Ocular, Safety analysis set
[5] = Location: Overall, Safety Analysis Set
[6] = Location: Overall, Safety analysis set

Cc1ncc2n1-c1ccc(Cl)cc1C(c1ccccc1F)=NC2 [Midazolam, 8-chloro-6-(2-fluorophenyl)-1-methyl-4H-imidazo[1,5-a][1,4]benzodiazepine]
5 #: Any TEAE, events [2]
4 (4.5) n (%): Any TEAE, subjects [2]
0 #: Any Grade 3+ TEAE, events [2] | Any SAE, events [2] | Any TEAE Resulting in Death, events [2] | Any TEAE Resulting in Study Drug Interruption, events [2] | Any TEAE Resulting in Study Drug Withdrawal, events [2] | Any TESAE, events [2] | Any Treatment-Related TEAE Resulting in Death, events [2] | Any Treatment-Related TESAE, events [2] | Any Unexpected TEAE, events [2] | Any Unexpected Treatment-Related TEAE, events [2] | TEAESI: Abuse-related AEs, events [2] | TEAESI: Ketamine emergence delirium, events [2] | TEAESI: Neurocognitive AEs, events [2] | TEAESI: Oral/pharyngeal AEs, events [2] | TEAESI: Oversedation requiring the use of flumazenil, events [2] | Any Grade 3+ TEAE, events [4] | Any Grade 3+ Treatment-Related TEAE, events [4] | Any SAE, events [4] | Any TEAE Resulting in Death, events [4] | Any TEAE Resulting in Study Drug Interruption, events [4] | Any TEAE Resulting in Study Drug Withdrawal, events [4] | Any TEAESI, events [4] | Any TESAE, events [4] | Any Treatment-Related TEAESI, events [4] | Any Treatment-Related TESAE, events [4] | Any Unexpected Treatment-Related TEAE, events [4] | TEAESI: Abuse-related AEs, events [4] | TEAESI: Cardiovascular AEs, events [4] | TEAESI: Ketamine emergence delirium, events [4] | TEAESI: Neurocognitive AEs, events [4] | TEAESI: Oral/pharyngeal AEs, events [4] | TEAESI: Oversedation requiring the use of flumazenil, events [4] | TEAESI: Respiratory AEs, events [4] | Any Grade 3+ TEAE, events [6] | Any SAE, events [6] | Any TEAE Resulting in Death, events [6] | Any TEAE Resulting in Study Drug Interruption, events [6] | Any TEAE Resulting in Study Drug Withdrawal, events [6] | Any TESAE, events [6] | Any Treatment-Related TEAE Resulting in Death, events [6] | Any Treatment-Related TESAE, events [6] | Any Unexpected Treatment-Related TEAE, events [6] | TEAESI: Abuse-related AEs, events [6] | TEAESI: Ketamine emergence delirium, events [6] | TEAESI: Neurocognitive AEs, events [6] | TEAESI: Oral/pharyngeal AEs, events [6] | TEAESI: Oversedation requiring the use of flumazenil, events [6]
1 (1.1) n (%): Any Treatment-Related TEAESI, subjects [2] | TEAESI: Cardiovascular AEs, subjects [2] | TEAESI: Respiratory AEs, subjects [2] | Any Treatment-Related TEAE, subjects [4] | TEAESI: Cardiovascular AEs, subjects [4] | TEAESI: Respiratory AEs, subjects [4] | Any Treatment-Related TEAESI, subjects [6] | TEAESI: Cardiovascular AEs, subjects [6] | TEAESI: Respiratory AEs, subjects [6]
10 (11.2) n (%): Any AE, subjects [4] | Any TEAE, subjects [4]
4 #: Any Treatment-Related TEAE, events [6]
0 n: TEAE: Amnesia [1] | TEAE: Anxiety [1] | TEAE: Back pain [1] | TEAE: Balance disorder [1] | TEAE: Blood pressure increased [1] | TEAE: Blood pressure systolic increased [1] | TEAE: Bradycardia [1] | TEAE: Cardiac disorders (System Organ Class) [1] | TEAE: Cough [1] | TEAE: Dental local anaesthesia [1] | TEAE: Dizziness [1] | TEAE: Fatigue [1] | TEAE: Gastrointestinal disorders (System Organ Class) [1] | TEAE: General disorders and administration site conditions (System Organ Class) [1] | TEAE: Hiccups [1] | TEAE: Hypertension [1] | TEAE: Hypoaesthesia oral [1] | TEAE: Infections and infestations (System Organ Class) [1] | TEAE: Injury, poisoning and procedural complications (System Organ Class) [1] | TEAE: Investigations (System Organ Class) [1] | TEAE: Lethargy [1] | TEAE: Musculoskeletal and connective tissue disorders (System Organ Class) [1] | TEAE: Myalgia [1] | TEAE: Nasal Discomfort [1] | TEAE: Nausea [1] | TEAE: Neck pain [1] | TEAE: Oxygen saturation decreased [1] | TEAE: Post procedural hypotension [1] | TEAE: Procedural nausea [1] | TEAE: Procedural vomiting [1] | TEAE: Product after taste [1] | TEAE: Product issues (System Organ Class) [1] | TEAE: Psychiatric disorders (System Organ Class) [1] | TEAE: Pyrexia [1] | TEAE: Sinusitis [1] | TEAE: Surgical and medical procedures (System Organ Class) [1] | TEAE: Tachycardia [1] | TEAE: Taste disorder [1] | TEAE: Vascular disorders (System Organ Class) [1] | TEAE: Abnormal sensation in eye [3] | TEAE: Corneal abrasion [3] | TEAE: Corneal oedema [3] | TEAE: Diplopia [3] | TEAE: General disorders and administration site conditions (System Organ Class) [3] | TEAE: Glare [3] | TEAE: Injury, poisoning and procedural complications (System Organ Class) [3] | TEAE: Installation site pain [3] | TEAE: Lacrimation increased [3] | TEAE: Ocular discomfort [3] | TEAE: Photophobia [3] | TEAE: Photopsia [3] | TEAE: Procedural pain [3] | TEAE: Visual field defect [3] | TEAE: Visual impairment [3] | TEAE: Abnormal sensation in eye [5] | TEAE: Amnesia [5] | TEAE: Anxiety [5] | TEAE: Back pain [5] | TEAE: Balance disorder [5] | TEAE: Blood pressure increased [5] | TEAE: Blood pressure systolic increased [5] | TEAE: Bradycardia [5] | TEAE: Corneal abrasion [5] | TEAE: Corneal oedema [5] | TEAE: Cough [5] | TEAE: Dental local anaesthesia [5] | TEAE: Diplopia [5] | TEAE: Dizziness [5] | TEAE: Fatigue [5] | TEAE: Gastrointestinal disorders (System Organ Class) [5] | TEAE: Glare [5] | TEAE: Hiccups [5] | TEAE: Hypertension [5] | TEAE: Hypoaesthesia oral [5] | TEAE: Infections and infestations (System Organ Class) [5] | TEAE: Injury, poisoning and procedural complications (System Organ Class) [5] | TEAE: Instillation site pain [5] | TEAE: Investigations (System Organ Class) [5] | TEAE: Lacrimation increased [5] | TEAE: Lethargy [5] | TEAE: Musculoskeletal and connective tissue disorders (System Organ Class) [5] | TEAE: Myalgia [5] | TEAE: Nasal Discomfort [5] | TEAE: Nausea [5] | TEAE: Neck pain [5] | TEAE: Ocular discomfort [5] | TEAE: Oxygen saturation decreased [5] | TEAE: Photophobia [5] | TEAE: Photopsia [5] | TEAE: Post procedural hypotension [5] | TEAE: Procedural nausea [5] | TEAE: Procedural pain [5] | TEAE: Procedural vomiting [5] | TEAE: Product after taste [5] | TEAE: Product issues (System Organ Class) [5] | TEAE: Psychiatric disorders (System Organ Class) [5] | TEAE: Pyrexia [5] | TEAE: Sinusitis [5] | TEAE: Surgical and medical procedures (System Organ Class) [5] | TEAE: Taste disorder [5] | TEAE: Vascular disorders (System Organ Class) [5] | TEAE: Visual field defect [5] | TEAE: Visual impairment [5] | Treatment-related TEAE: Anxiety (Safety Analysis Set) | Treatment-related TEAE: Blood pressure increased (Safety Analysis Set) | Treatment-related TEAE: Bradycardia (Safety Analysis Set) | Treatment-related TEAE: Cardiac disorders (System Organ Class) (Safety Analysis Set) | Treatment-related TEAE: Dental local anaesthesia (Safety Analysis Set) | Treatment-related TEAE: Dizziness (Safety Analysis Set) | Treatment-related TEAE: Eye disorders (System Organ Class) (Safety Analysis Set) | Treatment-related TEAE: Hiccups (Safety Analysis Set) | Treatment-related TEAE: Injury, poisoning and procedural complications (System Organ Class) (Safety Analysis Set) | Treatment-related TEAE: Investigations (System Organ Class) (Safety Analysis Set) | Treatment-related TEAE: Lethargy (Safety Analysis Set) | Treatment-related TEAE: Oxygen saturation decreased (Safety Analysis Set) | Treatment-related TEAE: Procedural nausea (Safety Analysis Set) | Treatment-related TEAE: Procedural vomiting (Safety Analysis Set) | Treatment-related TEAE: Product after taste (Safety Analysis Set) | Treatment-related TEAE: Product issues (System Organ Class) (Safety Analysis Set) | Treatment-related TEAE: Psychiatric disorders (System Organ Class) (Safety Analysis Set) | Treatment-related TEAE: Surgical and medical procedures (System Organ Class) (Safety Analysis Set) | Treatment-related TEAE: Tachycardia (Safety Analysis Set) | Treatment-related TEAE: Visual impairment (Safety Analysis Set)
2 #: Any TEAESI, events [2] | Any TEAESI, events [6]
6 (6.7) n (%): Any Unexpected TEAE, subjects [4] | Any Unexpected TEAE, subjects [6]
9 #: Any AE, events [2] | Any Unexpected TEAE, events [4] | Any Unexpected TEAE, events [6]
2 (2.2) n (%): Any TEAESI, subjects [2] | Any Treatment-Related TEAE, subjects [2] | Any TEAESI, subjects [4] | Any TEAESI, subjects [6] | Any Treatment-Related TEAE, subjects [6]
20 #: Any TEAE, events [6]
7 (7.9) n (%): Any AE, subjects [2]
16 (18.0) n (%): Any AE, subjects [6]
1 #: Any Treatment-Related TEAESI, events [2] | TEAESI: Cardiovascular AEs, events [2] | TEAESI: Respiratory AEs, events [2] | Any Treatment-Related TEAE, events [4] | Any Treatment-Related TEAESI, events [6] | TEAESI: Cardiovascular AEs, events [6] | TEAESI: Respiratory AEs, events [6]
13 (14.6) n (%): Any TEAE, subjects [6]
15 #: Any AE, events [4] | Any TEAE, events [4]
3 #: Any Treatment-Related TEAE, events [2]
24 #: Any AE, events [6]
0 n (%): Any Grade 3+ TEAE, subjects [2] | Any SAE, subjects [2] | Any TEAE Resulting in Death, subjects [2] | Any TEAE Resulting in Study Drug Interruption, subjects [2] | Any TEAE Resulting in Study Drug Withdrawal, subjects [2] | Any TESAE, subjects [2] | Any Treatment-Related TEAE Resulting in Death, subjects [2] | Any Treatment-Related TESAE, subjects [2] | Any Unexpected TEAE, subjects [2] | Any Unexpected Treatment-Related TEAE, subjects [2] | TEAESI: Abuse-related AEs, subjects [2] | TEAESI: Ketamine emergence delirium, subjects [2] | TEAESI: Neurocognitive AEs, subjects [2] | TEAESI: Oral/pharyngeal AEs, subjects [2] | TEAESI: Oversedation requiring the use of flumazenil, subjects [2] | Any Grade 3+ TEAE, subjects [4] | Any Grade 3+ Treatment-Related TEAE, subjects [4] | Any SAE, subjects [4] | Any TEAE Resulting in Death, subjects [4] | Any TEAE Resulting in Study Drug Interruption, subjects [4] | Any TEAE Resulting in Study Drug Withdrawal, subjects [4] | Any TESAE, subjects [4] | Any Treatment-Related TEAESI, subjects [4] | Any Treatment-Related TESAE, subjects [4] | Any Unexpected Treatment-Related TEAE, subjects [4] | TEAESI: Abuse-related AEs, subjects [4] | TEAESI: Ketamine emergence delirium, subjects [4] | TEAESI: Neurocognitive AEs, subjects [4] | TEAESI: Oral/pharyngeal AEs, subjects [4] | TEAESI: Oversedation requiring the use of flumazenil, subjects [4] | Any Grade 3+ TEAE, subjects [6] | Any SAE, subjects [6] | Any TEAE Resulting in Death, subjects [6] | Any TEAE Resulting in Study Drug Interruption, subjects [6] | Any TEAE Resulting in Study Drug Withdrawal, subjects [6] | Any TESAE, subjects [6] | Any Treatment-Related TEAE Resulting in Death, subjects [6] | Any Treatment-Related TESAE, subjects [6] | Any Unexpected Treatment-Related TEAE, subjects [6] | TEAESI: Abuse-related AEs, subjects [6] | TEAESI: Ketamine emergence delirium, subjects [6] | TEAESI: Neurocognitive AEs, subjects [6] | TEAESI: Oral/pharyngeal AEs, subjects [6] | TEAESI: Oversedation requiring the use of flumazenil, subjects [6]
